Results from patent US5157052A, “Method for inhibiting IgE production” (priority 1990, dated 1992).

What was measured:
IgE [1] = test: Serum IgE response induced by FF1-4D5 + H∂A1 anti-IgD antibodies (ELISA, Assay A / Assay F); assay type: in vivo, mouse (Balb/c female); conditions: for IgE ± SD: Table 9, 20 μg IP days 3 and 4
Outline: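 Transient IgE response induced in female Balb/c mice (10–20 weeks) by a day-0 i.v. or s.c. injection of 100 μg each of anti-IgD FF1-4D5 and H.δA1. Serum IgE measured by sandwich ELISA (B1E3 capture, biotinylated R1E4 detection, avidin-biotin-HRP/ABTS), quantified against an IgE standard curve corrected for serum dilution.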

IgG3 = test: Serum IgG3 in anti-IgD stimulated mice (two site sandwich ELISA, Assay D); assay type: in vivo, mouse (Balb/c female)
IgE [2] = test: ED50 for inhibition of IgE calculated from the examples; assay type: in vivo, mouse; conditions: dose to achieve 50% inhibition of IgE
Experimental: From the data in the above examples, the effective dose of each prostaglandin to achieve 50% inhibition of IgE (ED50) was calculated.

Compound: CCCCC(C)(O)C/C=C/[C@H]1[C@H](O)CC(=O)[C@@H]1C/C=C\CCCC(=O)OC (mixture of isomers) [(±) methyl 11α,16-dihydroxy-16-methyl-9-oxoprosta-5Z,13E-dien-1-oate]
- Serum IgE ± SD (IgE [1]; 10.0 μg IP 4x daily days 3 and 4, day 8): 1884 ± 598 ng/mL
- Mean IgE ± SD (IgE [1]; 10 μg IP 4x daily days 3 and 4, day 8 (controls 14083-15890)): 2661 ± 504 ng/mL
- Serum IgE ± SD (IgE [1]; 10.0 μg IP 4x daily days 3 and 4, day 9): 1991 ± 834 ng/mL
- Serum IgE ± SD (IgE [1]; 10.0 μg IP 4x daily days 3 and 4, day 11): 1429 ± 361 ng/mL
- Mean IgE ± SD (IgE [1]; 10 μg IP 4x daily days 3 and 4, day -1 baseline before treatment): 1382 ± 135 ng/mL
- Serum IgE ± SD (IgE [1]; 10.0 μg IP 4x daily days 3 and 4, day -1 baseline before treatment): 1040 ± 211 ng/mL
- Mean IgE ± SD (IgE [1]; 20 μg IP 4x daily days 3 and 4, day 8 (controls 14083-15890)): 1608 ± 272 ng/mL
- Mean IgE ± SD (IgE [1]; 20 μg IP 4x daily days 3 and 4, day -1 baseline before treatment): 1308 ± 204 ng/mL
- inhibition of de novo IgE synthesis in vivo (IgE [1]; 20 μg days 3 and 4): de nouo IgE synthesis is inhibited
- Serum IgE ± SD (IgE [1]; 40 μg IP 3x daily days 3 and 4, day 7): 998 ± 146 ng/mL
- Serum IgE ± SD (IgE [1]; 40 μg IP 3x daily days 3 and 4, day 8): 1214 ± 181 ng/mL
- Serum IgE ± SD (IgE [1]; 40 μg IP 3x daily days 3 and 4, day 9): 1119 ± 135 ng/mL
- Serum IgE ± SD (IgE [1]; 40 μg IP 3x daily days 3 and 4, day 11): 1110 ± 249 ng/mL
- Serum IgE ± SD (IgE [1]; 40 μg IP 3x daily days 3 and 4, day -1 baseline before treatment): 822 ± 39 ng/mL
- Serum IgE ± SD (IgE [1]; 40.0 μg IP 4x daily days 3 and 4, day 7): 1037 ± 237 ng/mL
- Serum IgE ± SD (IgE [1]; 40.0 μg IP 4x daily days 3 and 4, day 8): 1152 ± 388 ng/mL
- Mean IgE ± SD (IgE [1]; 40 μg IP 4x daily days 3 and 4, day 8 (controls 14083-15890)): 1217 ± 344 ng/mL
- Serum IgE ± SD (IgE [1]; 40.0 μg IP 4x daily days 3 and 4, day 9): 870 ± 83 ng/mL
- Serum IgE ± SD (IgE [1]; 40.0 μg IP 4x daily days 3 and 4, day 11): 1028 ± 302 ng/mL
- Mean IgE ± SD (IgE [1]; 40 μg IP 4x daily days 3 and 4, day -1 baseline before treatment): 1114 ± 324 ng/mL
- Serum IgE ± SD (IgE [1]; 40.0 μg IP 4x daily days 3 and 4, day -1 baseline before treatment): 929 ± 97 ng/mL
- inhibition of serum IgE synthesis (IgE [1]; 2-40 μg IP days 3 and 4): reduces IgE production in a dose dependent manner
- Mean IgE ± SD (IgE [1]; Group D, unstimulated (PBS on day 0), 40 μg (text: 20 μg) IP days 3 and 4, day 8): 1026 ± 387 ng/mL
- Mean IgE ± SD (IgE [1]; Group D, unstimulated (PBS on day 0), 40 μg (text: 20 μg) IP days 3 and 4, day -1 baseline before treatment): 1289 ± 10 ng/mL
- IgE inhibition, 3 vs 4 times a day (IgE [1]; IP days 3 and 4): equally effective at inhibiting IgE production in a dose dependent manner whether administered 3 times a day or 4 times a day
- dosage at which maximum inhibition is obtained (IgE [1]; IP days 3 and 4): 40.0 µg
- lowest dosage at which some inhibition is obtained (IgE [1]; IP days 3 and 4): 1.0 µg
- IgE ± SD (IgE [1]; day 8 (control 3539)): 1206 ± 119 ng/mL
- IgE ± SD (IgE [1]; day -1 baseline before treatment): 1015 ± 70 ng/mL
- IgG3 ± SD (IgG3; 2 μg IP days 3 and 4, day 7 (control 227)): 370 ± 229 µg/mL
- IgG3 ± SD (IgG3; 2 μg IP days 3 and 4, day 8 (control 519)): 882 ± 310 µg/mL
- IgG3 ± SD (IgG3; 2 μg IP days 3 and 4, day 9 (control 510)): 741 ± 475 µg/mL
- IgG3 ± SD (IgG3; 2 μg IP days 3 and 4, day 11 (control 465)): 687 ± 152 µg/mL
- IgG3 ± SD (IgG3; 2 μg IP days 3 and 4, day -1 baseline before treatment): 70 ± 10 µg/mL
- IgG3 ± SD (IgG3; 5 μg IP days 3 and 4, day 7): 464 ± 161 µg/mL
- IgG3 ± SD (IgG3; 5 μg IP days 3 and 4, day 8): 640 ± 46 µg/mL
- IgG3 ± SD (IgG3; 5 μg IP days 3 and 4, day 9): 649 ± 232 µg/mL
- IgG3 ± SD (IgG3; 5 μg IP days 3 and 4, day 11): 559 ± 162 µg/mL
- IgG3 ± SD (IgG3; 5 μg IP days 3 and 4, day -1 baseline before treatment): 109 ± 44 µg/mL
- IgG3 ± SD (IgG3; 10 μg IP days 3 and 4, day 7): 494 ± 267 µg/mL
- IgG3 ± SD (IgG3; 10 μg IP days 3 and 4, day 8): 789 ± 264 µg/mL
- IgG3 ± SD (IgG3; 10 μg IP days 3 and 4, day 9): 760 ± 340 µg/mL
- IgG3 ± SD (IgG3; 10 μg IP days 3 and 4, day 11): 802 ± 216 µg/mL
- IgG3 ± SD (IgG3; 10 μg IP days 3 and 4, day -1 baseline before treatment): 68 ± 2 µg/mL
- IgG3 ± SD (IgG3; 20 μg IP days 3 and 4, day 7): 446 ± 266 µg/mL
- IgG3 ± SD (IgG3; 20 μg IP days 3 and 4, day 8): 1075 ± 453 µg/mL
- IgG3 ± SD (IgG3; 20 μg IP days 3 and 4, day 9): 1636 ± 275 µg/mL
- IgG3 ± SD (IgG3; 20 μg IP days 3 and 4, day 11): 1288 ± 156 µg/mL
- IgG3 ± SD (IgG3; 20 μg IP days 3 and 4, day -1 baseline before treatment): 77 ± 10 µg/mL
- IgG3 ± SD (IgG3; 40 μg IP days 3 and 4, day 7): 236 ± 84 µg/mL
- IgG3 ± SD (IgG3; 40 μg IP days 3 and 4, day 8): 639 ± 104 µg/mL
- IgG3 ± SD (IgG3; 40 μg IP days 3 and 4, day 9): 1048 ± 167 µg/mL
- IgG3 ± SD (IgG3; 40 μg IP days 3 and 4, day 11): 1044 ± 115 µg/mL
- IgG3 ± SD (IgG3; 40 μg IP days 3 and 4, day -1 baseline before treatment): 68 ± 6.5 µg/mL
- ED50 IgE Inhibition (IgE [2]): 1.0 μg/mouse/TID
